Source: patent publication US8729064B2, “Heteroaromatic and aromatic piperazinyl azetidinyl amides as monoacylglycerol lipase inhibitors” (Janssen Pharmaceutica, NV, priority 2009, dated 2014)

Target: T1, MGL activity in HeLa cell homogenate (Homo sapiens, UniProt Q99685)
T1 construct: HeLa cells were homogenated with a Polytron; endogenous in cells; host or cells: HeLa cell homogenate
T1 sequence (Q99685 1-303): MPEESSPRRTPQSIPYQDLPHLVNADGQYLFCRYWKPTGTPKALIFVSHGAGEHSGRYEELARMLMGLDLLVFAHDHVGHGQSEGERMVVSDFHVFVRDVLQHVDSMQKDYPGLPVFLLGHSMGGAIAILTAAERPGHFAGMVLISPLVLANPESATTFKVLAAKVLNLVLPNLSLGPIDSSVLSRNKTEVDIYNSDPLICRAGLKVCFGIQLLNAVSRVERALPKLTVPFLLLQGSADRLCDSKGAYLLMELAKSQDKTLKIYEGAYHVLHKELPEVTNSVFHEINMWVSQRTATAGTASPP
Experiment: 2-AG Accumulation Assay in HeLa cell homogenate
Assay type: biochemical
Details: compound 1 μM, accumulated 2-AG relative to MAFP 2-AG x100

Row | Example 4 % MAFP @ 1 μM [% MAFP] | SMILES
1 | 39.7 | O=C(c1ccc2nc(C3CCCCC3)oc2c1)N1CC(N2CCN(c3ccccn3)CC2)C1 [Compound 2, (2-Cyclohexyl-benzooxazol-6-yl)-[3-(4-pyridin-2-yl-piperazin-1-yl)-azetidin-1-yl]-methanone]
2 | 30.6 | O=C(c1cccc2nc(-c3ccc(F)cc3)oc12)N1CC(N2CCN(c3ccccn3)CC2)C1 [Compound 6, [2-(4-Fluoro-phenyl)-benzooxazol-7-yl]-[3-(4-pyridin-2-yl-piperazin-1-yl)-azetidin-1-yl]-methanone]
3 | 19.9 | CC(C)(C)c1nc2ccc(C(=O)N3CC(N4CCN(c5ccccn5)CC4)C3)cc2o1 [Compound 19, (2-tert-Butyl-benzooxazol-6-yl)-[3-(4-pyridin-2-yl-piperazin-1-yl)-azetidin-1-yl]-methanone]
4 | 45.7 | O=C(c1cccc2nc(-c3cccc(F)c3)oc12)N1CC(N2CCN(c3ccccn3)CC2)C1 [Compound 3, [2-(3-Fluoro-phenyl)-benzooxazol-7-yl]-[3-(4-pyridin-2-yl-piperazin-1-yl)-azetidin-1-yl]-methanone]

Same assay, conditions: compound 10 μM, accumulated 2-AG relative to MAFP 2-AG x100

Row | SMILES | Example 4 % MAFP @ 10 μM [% MAFP]
5 | O=C(c1ccc2[nH]c(CC3CCCCC3)cc2c1)N1CC(N2CCN(c3ccccn3)CC2)C1 [Compound 14, (2-Cyclohexylmethyl-1H-indol-5-yl)-[3-(4-pyridin-2-yl-piperazin-1-yl)-azetidin-1-yl]-methanone] | 53.7
6 | COc1ccccc1N1CCN(C2CN(C(=O)c3ccc4c(c3)cc(COc3ccccc3)n4CC(C)(C)C)C2)CC1 [Compound 22, [1-(2,2-Dimethyl-propyl)-2-phenoxymethyl-1H-indol-5-yl]-{3-[4-(2-methoxy-phenyl)-piperazin-1-yl]-azetidin-1-yl}-methanone] | 50.1
7 | CC(C)Cc1cc2cc(C(=O)N3CC(N4CCN(c5ccccn5)CC4)C3)ccc2n1CC(C)C [Compound 8, (1,2-Diisobutyl-1H-indol-5-yl)-[3-(4-pyridin-2-yl-piperazin-1-yl)-azetidin-1-yl]-methanone] | 72.9
8 | CCCc1cc2cc(C(=O)N3CC(N4CCN(c5ccccn5)CC4)C3)ccc2n1CC1CCCCC1 [Compound 28, (1-Cyclohexylmethyl-2-propyl-1H-indol-5-yl)-[3-(4-pyridin-2-yl-piperazin-1-yl)-azetidin-1-yl]-methanone] | 77.0
9 | O=C(c1ccc2c(c1)cc(Cc1ccccc1)n2CC1CCCCC1)N1CC(N2CCN(c3ccccn3)CC2)C1 [Compound 18, (2-Benzyl-1-cyclohexylmethyl-1H-indol-5-yl)-[3-(4-pyridin-2-yl-piperazin-1-yl)-azetidin-1-yl]-methanone] | 134.6
10 | Cn1c(CC2CCCC2)cc2cc(C(=O)N3CC(N4CCN(c5ccccn5)CC4)C3)ccc21 [Compound 12, (2-Cyclopentylmethyl-1-methyl-1H-indol-5-yl)-[3-(4-pyridin-2-yl-piperazin-1-yl)-azetidin-1-yl]-methanone] | 142.0
11 | CC(C)(C)Cn1c(-c2ccccc2)cc2cc(C(=O)N3CC(N4CCN(c5ccccn5)CC4)C3)ccc21 [Compound 10, [1-(2,2-Dimethyl-propyl)-2-phenyl-1H-indol-5-yl]-[3-(4-pyridin-2-yl-piperazin-1-yl)-azetidin-1-yl]-methanone] | 160.1
12 | COc1ccc(-c2nc3cccc(C(=O)N4CC(N5CCN(c6ccccn6)CC5)C4)c3o2)cc1 [Compound 7, [2-(4-Methoxy-phenyl)-benzooxazol-7-yl]-[3-(4-pyridin-2-yl-piperazin-1-yl)-azetidin-1-yl]-methanone] | 79.5
13 | COc1ccccc1N1CCN(C2CN(C(=O)c3ccc4c(c3)cc(COc3ccccc3)n4CC(C)C)C2)CC1 [Compound 17, (1-Isobutyl-2-phenoxymethyl-1H-indol-5-yl)-{3-[4-(2-methoxy-phenyl)-piperazin-1-yl]-azetidin-1-yl}-methanone] | 25.9
14 | O=C(c1cccc2nc(-c3ccc(F)cc3)oc12)N1CC(N2CCN(c3ccccn3)CC2)C1 [Compound 6, [2-(4-Fluoro-phenyl)-benzooxazol-7-yl]-[3-(4-pyridin-2-yl-piperazin-1-yl)-azetidin-1-yl]-methanone] | 68.8
15 | CC(C)Cn1c(COc2ccccc2)cc2cc(C(=O)N3CC(N4CCN(c5ccccn5)CC4)C3)ccc21 [Compound 9, (1-Isobutyl-2-phenoxymethyl-1H-indol-5-yl)-[3-(4-pyridin-2-yl-piperazin-1-yl)-azetidin-1-yl]-methanone] | 67.8
16 | COc1ccccc1N1CCN(C2CN(C(=O)c3ccc4c(c3)cc(Cc3ccccc3)n4CC3CCCCC3)C2)CC1 [Compound 23, (2-Benzyl-1-cyclohexylmethyl-1H-indol-5-yl)-{3-[4-(2-methoxy-phenyl)-piperazin-1-yl]-azetidin-1-yl}-methanone] | 84.5
17 | CC(C)(C)c1nc2ccc(C(=O)N3CC(N4CCN(c5ccccn5)CC4)C3)cc2o1 [Compound 19, (2-tert-Butyl-benzooxazol-6-yl)-[3-(4-pyridin-2-yl-piperazin-1-yl)-azetidin-1-yl]-methanone] | 47.3
18 | O=C(c1cccc2nc(-c3cccc(F)c3)oc12)N1CC(N2CCN(c3ccccn3)CC2)C1 [Compound 3, [2-(3-Fluoro-phenyl)-benzooxazol-7-yl]-[3-(4-pyridin-2-yl-piperazin-1-yl)-azetidin-1-yl]-methanone] | 82.9
19 | CC(C)(C)Cn1c(C(C)(C)C)cc2cc(C(=O)N3CC(N4CCN(c5ccccn5)CC4)C3)ccc21 [Compound 26, [2-tert-Butyl-1-(2,2-dimethyl-propyl)-1H-indol-5-yl]-[3-(4-pyridin-2-yl-piperazin-1-yl)-azetidin-1-yl]-methanone] | 37.0
20 | O=C(c1ccc2c(c1)cc(COc1ccccc1)n2CC1CCCCC1)N1CC(N2CCN(c3ccccn3)CC2)C1 [Compound 11, (1-Cyclohexylmethyl-2-phenoxymethyl-1H-indol-5-yl)-[3-(4-pyridin-2-yl-piperazin-1-yl)-azetidin-1-yl]-methanone] | 160.1

Continued, values first:

Row | Example 4 % MAFP @ 10 μM [% MAFP] | SMILES
21 | 86.9 | COc1cccc(-c2nc3cc(C(=O)N4CC(N5CCN(c6ccccn6)CC5)C4)ccc3o2)c1 [Compound 20, [2-(3-Methoxy-phenyl)-benzooxazol-5-yl]-[3-(4-pyridin-2-yl-piperazin-1-yl)-azetidin-1-yl]-methanone]
22 | 87.6 | O=C(c1ccc2nc(C3CCCCC3)oc2c1)N1CC(N2CCN(c3ccccn3)CC2)C1 [Compound 2, (2-Cyclohexyl-benzooxazol-6-yl)-[3-(4-pyridin-2-yl-piperazin-1-yl)-azetidin-1-yl]-methanone]
23 | 57.6 | COc1ccccc1Cc1nc2cc(C(=O)N3CC(N4CCN(c5ccccn5)CC4)C3)ccc2o1 [Compound 15, [2-(2-Methoxy-benzyl)-benzooxazol-5-yl]-[3-(4-pyridin-2-yl-piperazin-1-yl)-azetidin-1-yl]-methanone]
24 | 93.5 | CC(C)Cn1c(-c2ccccc2)cc2cc(C(=O)N3CC(N4CCN(c5ccccn5)CC4)C3)ccc21 [Compound 13, (1-Isobutyl-2-phenyl-1H-indol-5-yl)-[3-(4-pyridin-2-yl-piperazin-1-yl)-azetidin-1-yl]-methanone]
25 | 29.2 | COc1ccccc1N1CCN(C2CN(C(=O)c3ccc4c(c3)cc(Cc3ccccc3)n4CC(C)C)C2)CC1 [Compound 21, (2-Benzyl-1-isobutyl-1H-indol-5-yl)-{3-[4-(2-methoxy-phenyl)-piperazin-1-yl]-azetidin-1-yl}-methanone]
26 | 58.8 | COc1ccccc1N1CCN(C2CN(C(=O)c3ccc4c(c3)cc(-c3ccccc3)n4CC(C)(C)C)C2)CC1 [Compound 24, [1-(2,2-Dimethyl-propyl)-2-phenyl-1H-indol-5-yl]-{3-[4-(2-methoxy-phenyl)-piperazin-1-yl]-azetidin-1-yl}-methanone]
27 | 65.8 | CC(C)(C)Cn1c(-c2ccccc2)cc2cc(C(=O)N3CC(N4CCN(c5ccc(F)cc5)CC4)C3)ccc21 [Compound 25, [1-(2,2-Dimethyl-propyl)-2-phenyl-1H-indol-5-yl]-{3-[4-(4-fluoro-phenyl)-piperazin-1-yl]-azetidin-1-yl}-methanone]
28 | 76.3 | COCC(=O)c1c(-c2ccc(C)cc2)[nH]c2ccc(C(=O)N3CC(N4CCN(c5ccccn5)CC4)C3)cc12 [Compound 27, 2-Methoxy-1-{5-[3-(4-pyridin-2-yl-piperazin-1-yl)-azetidine-1-carbonyl]-2-p-tolyl-1H-indol-3-yl}-ethanone]
